According to BindingDB's records for doi:10.1016/j.bmcl.2003.10.062 (Technische Universitat Braunschweig, 2004):

Columns and labels:
[1] = target: Cyclin-dependent kinase 1/G2/mitotic-specific cyclin-B (Marthasterias glacialis, UniProt P15206+Q9DGD3); experiment: Kinase Inhibition Assay; conditions: pH 7.2; 30 °C
[2] = target: T1, Cyclin-dependent kinase 5 activator 1 [99-307] (Homo sapiens, UniProt Q00535); experiment: Kinase Inhibition Assay; conditions: pH 7.2; 30 °C
T1 construct: 99-307
T1 sequence (Q15078 99-307): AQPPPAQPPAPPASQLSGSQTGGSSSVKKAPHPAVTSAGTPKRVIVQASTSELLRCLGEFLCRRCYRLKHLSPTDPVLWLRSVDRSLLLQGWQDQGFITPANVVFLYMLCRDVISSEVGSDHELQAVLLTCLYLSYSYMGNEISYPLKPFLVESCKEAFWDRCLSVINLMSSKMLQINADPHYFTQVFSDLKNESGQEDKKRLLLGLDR
T1 sequence (Q00535 whole entry): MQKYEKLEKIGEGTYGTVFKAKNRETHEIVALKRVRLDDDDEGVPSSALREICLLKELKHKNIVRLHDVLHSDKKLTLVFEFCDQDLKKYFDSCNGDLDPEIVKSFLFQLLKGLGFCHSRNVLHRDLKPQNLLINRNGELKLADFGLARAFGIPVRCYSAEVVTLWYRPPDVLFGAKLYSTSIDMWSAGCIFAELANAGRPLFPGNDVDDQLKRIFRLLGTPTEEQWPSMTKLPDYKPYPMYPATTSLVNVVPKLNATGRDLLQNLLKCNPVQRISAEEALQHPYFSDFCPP

Cyclin-dependent kinase 1/G2/mitotic-specific cyclin-B, sequence (Q9DGD3 whole entry): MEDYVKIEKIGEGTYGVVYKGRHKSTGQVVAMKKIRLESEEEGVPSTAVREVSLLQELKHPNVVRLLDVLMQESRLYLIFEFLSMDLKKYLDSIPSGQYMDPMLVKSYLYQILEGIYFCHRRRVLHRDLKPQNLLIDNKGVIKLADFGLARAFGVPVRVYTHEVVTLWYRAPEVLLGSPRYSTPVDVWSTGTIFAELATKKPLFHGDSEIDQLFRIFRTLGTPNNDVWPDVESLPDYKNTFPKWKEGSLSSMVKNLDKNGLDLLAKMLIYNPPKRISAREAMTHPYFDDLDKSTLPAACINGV
Cyclin-dependent kinase 1/G2/mitotic-specific cyclin-B, sequence (P15206 whole entry): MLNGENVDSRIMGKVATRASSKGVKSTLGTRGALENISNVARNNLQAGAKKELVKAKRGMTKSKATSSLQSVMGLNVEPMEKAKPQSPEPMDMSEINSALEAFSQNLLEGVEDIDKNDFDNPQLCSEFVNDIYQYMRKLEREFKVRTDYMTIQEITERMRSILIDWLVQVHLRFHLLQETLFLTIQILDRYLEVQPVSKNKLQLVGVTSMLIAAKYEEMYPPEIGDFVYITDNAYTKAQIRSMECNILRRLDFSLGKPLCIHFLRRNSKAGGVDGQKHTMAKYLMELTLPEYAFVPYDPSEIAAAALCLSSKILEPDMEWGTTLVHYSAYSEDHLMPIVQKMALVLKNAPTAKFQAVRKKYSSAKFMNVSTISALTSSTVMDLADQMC

O=Nc1c(C2C(=O)Nc3ccc(I)cc32)[nH]c2ccccc12 (configuration not stated) [3-[(2Z,3E)-3-(hydroxyimino)-2,3-dihydro-1H-indol-2-ylidene]-5-iodo-2,3-dihydro-1H-indol-2-one]
IC50 [1]: 25 nM
IC50 [2]: 20 nM
